The values below come from ChEMBL document CHEMBL5154726, “Identification of triazolopyridine derivatives as a new class of AhR agonists and evaluation of anti-psoriasis effect in a mouse model” (Eur J Med Chem, 2022).

The target of data set [1] is T1, Nuclear factor erythroid 2-related factor 2 (Homo sapiens) (UniProt Q16236).
T1 sequence (whole entry): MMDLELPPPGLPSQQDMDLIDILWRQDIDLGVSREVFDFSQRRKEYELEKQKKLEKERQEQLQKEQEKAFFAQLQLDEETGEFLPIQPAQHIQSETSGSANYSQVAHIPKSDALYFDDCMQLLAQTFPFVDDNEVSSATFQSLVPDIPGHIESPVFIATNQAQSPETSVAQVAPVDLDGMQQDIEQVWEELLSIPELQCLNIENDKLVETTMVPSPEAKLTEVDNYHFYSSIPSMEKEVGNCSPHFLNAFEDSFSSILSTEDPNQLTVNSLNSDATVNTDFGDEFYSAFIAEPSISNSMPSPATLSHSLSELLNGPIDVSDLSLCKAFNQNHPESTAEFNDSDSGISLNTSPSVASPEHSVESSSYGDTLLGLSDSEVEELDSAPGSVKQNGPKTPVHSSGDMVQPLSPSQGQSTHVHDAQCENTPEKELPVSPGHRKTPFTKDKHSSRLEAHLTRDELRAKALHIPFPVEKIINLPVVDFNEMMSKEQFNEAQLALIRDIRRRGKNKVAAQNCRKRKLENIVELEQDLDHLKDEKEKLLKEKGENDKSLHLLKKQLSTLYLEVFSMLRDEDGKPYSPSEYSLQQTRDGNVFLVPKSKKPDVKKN
As to the kind of experiment: Activation of Nrf2 expression in human HaCaT cells up to 10 uM by qRT-PCR analysis. The format is cell-based. As to conditions: filed as activator.

Data set [2] has as its target T2, Aryl hydrocarbon receptor (Homo sapiens, UniProt P35869).
T2 sequence (P35869 whole entry): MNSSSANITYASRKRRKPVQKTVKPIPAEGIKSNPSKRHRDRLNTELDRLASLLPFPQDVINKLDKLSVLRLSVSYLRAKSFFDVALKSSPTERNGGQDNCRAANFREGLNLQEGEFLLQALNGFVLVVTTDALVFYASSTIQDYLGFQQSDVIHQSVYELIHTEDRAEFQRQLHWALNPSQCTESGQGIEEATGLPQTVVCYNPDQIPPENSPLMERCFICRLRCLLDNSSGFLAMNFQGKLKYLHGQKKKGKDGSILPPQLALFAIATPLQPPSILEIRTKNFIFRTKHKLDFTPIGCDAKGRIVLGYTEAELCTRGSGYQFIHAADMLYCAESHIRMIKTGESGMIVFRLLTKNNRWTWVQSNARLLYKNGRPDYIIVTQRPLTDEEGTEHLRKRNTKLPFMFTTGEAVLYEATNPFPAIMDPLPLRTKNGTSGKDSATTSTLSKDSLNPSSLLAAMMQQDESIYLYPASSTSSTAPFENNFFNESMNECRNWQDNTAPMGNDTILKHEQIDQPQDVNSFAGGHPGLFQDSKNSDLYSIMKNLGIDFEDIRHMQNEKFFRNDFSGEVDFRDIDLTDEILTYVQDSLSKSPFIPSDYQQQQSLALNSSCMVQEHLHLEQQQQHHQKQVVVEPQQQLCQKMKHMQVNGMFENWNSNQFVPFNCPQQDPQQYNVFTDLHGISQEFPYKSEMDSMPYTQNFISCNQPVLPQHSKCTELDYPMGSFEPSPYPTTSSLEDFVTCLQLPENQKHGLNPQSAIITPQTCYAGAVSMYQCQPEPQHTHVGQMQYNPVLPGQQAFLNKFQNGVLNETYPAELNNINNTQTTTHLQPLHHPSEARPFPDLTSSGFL
As to the kind of experiment: Induction of Ahr signalling in human HaCaT cells assessed as upregulation of FLG expression incubated for 48 hrs. The format is cell-based.

A short description of data set [3]: Cmax in Sprague-Dawley rat at 10 mg/kg, po measured up to 24 hrs by LC-MS/MS analysis. The format is ADME, organism-based. Details: time < 24 hrs, dose 10 mg/kg, route po. Conditions: in vivo.
Data set [4] addresses T2, Aryl hydrocarbon receptor. As to the kind of experiment: Induction of Ahr signalling in human HaCaT cells assessed as upregulation of IVL expression incubated for 48 hrs. The format is cell-based.
The nature of data set [5]: Cytotoxicity against human HUVEC cells assessed as reduction in cell viability measured after 72 hrs by MTT assay. The class given is toxicity, cell-based.
Data set [6] is described as follows: Half life in Sprague-Dawley rat at 5 mg/kg, iv measured up to 24 hrs by LC-MS/MS analysis. The format is ADME, organism-based. Conditions: in vivo.
The nature of data set [7]: AUC (0 to infinity) in Sprague-Dawley rat at 10 mg/kg, po measured up to 24 hrs by LC-MS/MS analysis. The format is ADME, organism-based. Also on record: time < 24 hrs, dose 10 mg/kg, route po. As to conditions: in vivo.
In data set [8] the test system is Mus musculus. The experiment in a line: Anti-psoriatic activity in IMQ-induced BALB/c psoriasis mouse model assessed as reduction in scaling at 5 to 20 mg/kg, po by H and E staining based analysis. The class given is functional, organism-based. As to conditions: dose 5-20 mg/kg.
A short description of data set [9]: Oral bioavailability in Sprague-Dawley rat at 10 mg/kg measured up to 24 hrs by LC-MS/MS analysis. The format is ADME, organism-based. Conditions: in vivo.
The subject of data set [10] is Mus musculus. The experiment in a line: Anti-psoriatic activity in IMQ-induced BALB/c psoriasis mouse model assessed as reduction in skin thickening at 0.1 to 1 % treated topically by H and E staining based analysis. The format is functional, organism-based. As to conditions: dose 0.1-1 %.
A further data set concerns the target Cytochrome P450 2C19 (Homo sapiens, UniProt P33261). The experiment in a line: Inhibition of CYP2C19 in human liver microsomes in presence of NADPH by LC-MS/MS analysis. The class given is ADME, Microsome.
Data set [11] in a line: Cytotoxicity against human LX2 cells assessed as reduction in cell viability measured after 72 hrs by MTT assay. The format is toxicity, cell-based, LX-2.
A further data set has as its target Cytochrome P450 2C9 (Homo sapiens, UniProt P11712). The experiment in a line: Inhibition of CYP2C9 in human liver microsomes in presence of NADPH by LC-MS/MS analysis. The class given is ADME, Microsome.
The nature of data set [12]: AUC (0 to t) in Sprague-Dawley rat at 5 mg/kg, iv measured up to 24 hrs by LC-MS/MS analysis. Details: dose 5 mg/kg, time < 24 hrs, route iv. The class given is ADME, organism-based. Conditions: in vivo.
The next data set has as its target Cytochrome P450 3A4 (Homo sapiens, UniProt P08684). The experiment in a line: Inhibition of CYP3A4 in human liver microsomes in presence of NADPH by LC-MS/MS analysis. The format is ADME, Microsome.
Data set [13] has as its target T2, Aryl hydrocarbon receptor. As to the kind of experiment: Induction of Ahr nuclear translocation from cytoplasm to nucleus in human HaCaT cells at 0.01 uM incubated for 1 hr by Western blot analysis. The format is cell-based.
The subject of data set [14] is Mus musculus. The experiment in a line: Anti-psoriatic activity in IMQ-induced BALB/c psoriasis mouse model assessed as reduction in scaling at 0.1 to 1 % treated topically by H and E staining based analysis. The class given is functional, organism-based. Conditions: dose 0.1-1 %.
Data set [15] can be described thus: Apparent permeability in MDCK cells at 50 uM incubated for 90 mins by LC/MS analysis. The class given is ADME, cell-based, Canis lupus familiaris. Conditions: dog.
The test system of data set [16] is Mus musculus. The experiment in a line: Anti-psoriatic activity in IMQ-induced BALB/c psoriasis mouse model assessed as reduction in erythema at 5 to 20 mg/kg, po by H and E staining based analysis. The class given is functional, organism-based. As to conditions: dose 5-20 mg/kg.
For data set [17], the target named is T2, Aryl hydrocarbon receptor. The experiment in a line: Agonist activity at AhR in human recombinant HepG2-Lucia AhR cell incubated for 24 hrs by luciferase reporter gene assay. The class given is cell-based.

Active and inactive are the calls of the source. The calls are words filed in the database; no cut-off is given here.

Chain of Cytochrome P450 2C19 (P33261 whole entry): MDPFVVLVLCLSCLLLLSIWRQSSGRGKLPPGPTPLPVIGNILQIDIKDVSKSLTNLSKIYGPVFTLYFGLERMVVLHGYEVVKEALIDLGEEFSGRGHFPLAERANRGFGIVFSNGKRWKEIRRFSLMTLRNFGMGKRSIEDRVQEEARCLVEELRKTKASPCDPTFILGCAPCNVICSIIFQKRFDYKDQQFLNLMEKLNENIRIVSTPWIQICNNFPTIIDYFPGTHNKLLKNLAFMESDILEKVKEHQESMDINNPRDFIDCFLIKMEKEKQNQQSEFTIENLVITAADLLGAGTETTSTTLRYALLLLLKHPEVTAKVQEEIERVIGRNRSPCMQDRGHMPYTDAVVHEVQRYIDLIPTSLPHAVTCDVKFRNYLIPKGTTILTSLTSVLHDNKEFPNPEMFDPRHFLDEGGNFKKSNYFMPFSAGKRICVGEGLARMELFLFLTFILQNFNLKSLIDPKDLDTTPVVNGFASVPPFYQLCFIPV
Chain of Cytochrome P450 3A4 (P08684 whole entry): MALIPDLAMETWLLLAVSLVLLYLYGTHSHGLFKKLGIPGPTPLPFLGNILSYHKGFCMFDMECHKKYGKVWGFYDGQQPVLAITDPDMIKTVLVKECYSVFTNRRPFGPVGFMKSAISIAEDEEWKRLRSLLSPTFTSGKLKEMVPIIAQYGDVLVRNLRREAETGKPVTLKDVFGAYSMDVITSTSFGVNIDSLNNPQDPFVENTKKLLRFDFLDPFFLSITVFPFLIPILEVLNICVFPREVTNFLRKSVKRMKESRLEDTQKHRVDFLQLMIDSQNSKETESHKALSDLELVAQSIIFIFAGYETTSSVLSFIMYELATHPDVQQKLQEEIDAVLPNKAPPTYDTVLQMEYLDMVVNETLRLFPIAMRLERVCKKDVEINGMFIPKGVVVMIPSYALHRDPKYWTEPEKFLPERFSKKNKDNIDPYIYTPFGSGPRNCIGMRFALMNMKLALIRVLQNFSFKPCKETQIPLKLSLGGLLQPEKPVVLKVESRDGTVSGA
Chain of Cytochrome P450 2C9 (P11712 whole entry): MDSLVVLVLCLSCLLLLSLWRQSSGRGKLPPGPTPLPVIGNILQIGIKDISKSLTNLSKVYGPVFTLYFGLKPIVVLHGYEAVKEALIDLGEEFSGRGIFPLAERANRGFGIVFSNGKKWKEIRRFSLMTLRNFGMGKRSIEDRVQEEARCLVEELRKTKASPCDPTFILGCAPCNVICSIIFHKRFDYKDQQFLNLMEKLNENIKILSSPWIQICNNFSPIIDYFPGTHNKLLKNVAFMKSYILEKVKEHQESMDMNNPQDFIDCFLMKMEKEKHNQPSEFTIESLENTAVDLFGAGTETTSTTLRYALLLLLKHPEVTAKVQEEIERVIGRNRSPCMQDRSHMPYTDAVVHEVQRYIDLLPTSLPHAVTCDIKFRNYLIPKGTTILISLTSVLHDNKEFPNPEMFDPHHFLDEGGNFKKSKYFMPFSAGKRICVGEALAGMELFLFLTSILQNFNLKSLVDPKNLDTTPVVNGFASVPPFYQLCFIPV

`Brc1ccc(-c2nc3ccc(Br)cn3n2)cc1`: the outcome (in [1]; in the data set with Mus musculus [8]; in the data set with Mus musculus [10]; in the data set with Mus musculus [14]; in the data set with Mus musculus [16]) was Active. In addition, the result in data set [2], in [4] and in data set [13] was Active. This compound registered a Cmax in data set [3] of 685 ng/mL. Besides, the IC50 at 72 h in data set [5] and in [11] was more than 300 µM in each case. Moreover, the half-life in data set [6] was 48.6 min. The compound further showed an area under the curve AUC(0-inf) in data set [7] of 1420 ng·h/mL. For the same compound, in data set [9], the bioavailability was determined as 15.1%. The IC50 on Cytochrome P450 2C19, on Cytochrome P450 2C9 and at Cytochrome P450 3A4 was more than 10 µM throughout. The AUC(0-t) at 24 h in [12] was determined as 4640 ng·h/mL. In addition, the Papp at 1.5 h, 50 µM in data set [15] was 3.49 ×10⁻⁶ cm/s. The EC50 in data set [17] came out at 0.03 nM.
